Source: the NIST ThermoML archive (doi:10.1016/j.jct.2017.03.034)

Experiment: molar heat capacity at constant pressure
Settings: Liquid, Large sample (1 g) DSC

CCCCCCCCCC [decane]
molar heat capacity at constant pressure [J/K/mol]
Settings | 120 kPa | 10170 kPa
323.15 K | 326.25 | 322.98
328.15 K | 328.24 | 325.68
333.15 K | 330.52 | 328.39
338.15 K | 333.22 | 330.95
343.15 K | 336.21 | 333.65
348.15 K | 339.06 | 336.35
353.15 K | 341.9 | 339.06
358.15 K | 344.46 | 342.05
363.15 K | 346.88 | 344.61
368.15 K | 349.73 | 347.31
373.15 K | 352.72 | 350.3
378.15 K | 355.56 | 353
383.15 K | 358.55 | 355.7
388.15 K | 361.68 | 358.41
393.15 K | 364.81 | 361.4
398.15 K | 367.8 | 364.24
403.15 K | 371.21 | 367.09
408.15 K | – | 370.07
413.15 K | – | 372.78
418.15 K | – | 375.77
423.15 K | – | 379.32
428.15 K | – | 382.6

CCCCCCCCCCCCCC [tetradecane]
molar heat capacity at constant pressure [J/K/mol]
Settings | 120 kPa | 10120 kPa
323.15 K | 449.55 | 447.76
328.15 K | 452.72 | 451.13
333.15 K | 456.09 | 454.51
338.15 K | 459.47 | 457.88
343.15 K | 463.04 | 461.25
348.15 K | 466.61 | 464.82
353.15 K | 470.38 | 468.2
358.15 K | 474.15 | 471.97
363.15 K | 477.72 | 475.54
368.15 K | 481.49 | 478.91
373.15 K | 485.26 | 483.07
378.15 K | 489.03 | 486.45
383.15 K | 492.8 | 489.82
388.15 K | 496.76 | 493.19
393.15 K | 500.14 | 497.16
398.15 K | 504.5 | 500.73
403.15 K | 508.27 | 503.71
408.15 K | 512.44 | 508.47
413.15 K | 515.81 | 511.64
418.15 K | 519.58 | 515.41
423.15 K | 523.35 | 518.78
428.15 K | 527.12 | 522.16
433.15 K | 530.89 | 525.93
438.15 K | 535.25 | 529.3
443.15 K | 539.81 | 533.47
448.15 K | 543.58 | 537.63
453.15 K | 547.95 | 541.6
458.15 K | 554.1 | 545.77
463.15 K | 559.65 | 550.33
468.15 K | – | 553.9
473.15 K | – | 558.07
478.15 K | – | 562.83
483.15 K | – | 566.79

CCCCCCCCCCCCCCCC [hexadecane]
molar heat capacity at constant pressure [J/K/mol]
Settings | 130 kPa | 10090 kPa
323.15 K | 513.57 | 512.21
328.15 K | 517.19 | 515.83
333.15 K | 520.81 | 519.46
338.15 K | 524.66 | 523.31
343.15 K | 528.51 | 526.48
348.15 K | 532.82 | 530.1
353.15 K | 536.44 | 534.4
358.15 K | 540.74 | 538.48
363.15 K | 544.59 | 542.1
368.15 K | 548.67 | 546.4
373.15 K | 553.2 | 550.7
378.15 K | 557.27 | 554.55
383.15 K | 561.57 | 558.86
388.15 K | 565.65 | 563.16
393.15 K | 569.73 | 567.24
398.15 K | 574.03 | 571.31
403.15 K | 578.56 | 575.61
408.15 K | 583.09 | 579.92
413.15 K | 586.94 | 584.44
418.15 K | 591.46 | 588.97
423.15 K | 595.77 | 593.05
428.15 K | 599.62 | 596.45
433.15 K | 603.92 | 600.3
438.15 K | 608.67 | 604.6
443.15 K | 613.2 | 609.35
448.15 K | 617.28 | 613.66
453.15 K | 622.26 | 617.05
458.15 K | – | 621.35
463.15 K | – | 625.43
468.15 K | – | 630.19
473.15 K | – | 634.94

CCCCCCCC [octane]
molar heat capacity at constant pressure [J/K/mol]
Settings | 100 kPa | 10130 kPa
323.15 K | 263.3 | 260.9
328.15 K | 265.7 | 263.18
333.15 K | 267.98 | 265.58
338.15 K | 270.38 | 267.75
343.15 K | 272.66 | 270.04
348.15 K | 275.18 | 272.32
353.15 K | 277.58 | 274.49
358.15 K | 280.09 | 277
363.15 K | 282.6 | 279.17
368.15 K | 285.11 | 281.57
373.15 K | 287.86 | 283.97
378.15 K | 290.37 | 286.49
383.15 K | 293.45 | 288.88
388.15 K | – | 290.94
393.15 K | – | 292.88
398.15 K | – | 295.97

CCCCCC [hexane]
molar heat capacity at constant pressure [J/K/mol]
Settings | 323.15 K | 328.15 K | 333.15 K | 338.15 K | 343.15 K | 348.15 K | 353.15 K | 358.15 K | 363.15 K | 368.15 K
140 kPa | 203.63 | 205.7 | 207.85 | – | – | – | – | – | – | –
10090 kPa | 200.62 | 202.43 | 204.49 | 206.13 | 208.11 | 210.1 | 211.91 | 214.15 | 216.04 | 218.37

CCCCCCCCCCCC [dodecane]
molar heat capacity at constant pressure [J/K/mol]
Settings | 100 kPa | 10180 kPa
323.15 K | 386.32 | 385.13
328.15 K | 389.56 | 388.02
333.15 K | 392.79 | 391.26
338.15 K | 395.86 | 394.33
343.15 K | 399.09 | 397.39
348.15 K | 402.33 | 400.46
353.15 K | 405.57 | 403.52
358.15 K | 408.8 | 406.93
363.15 K | 412.04 | 410
368.15 K | 415.28 | 413.23
373.15 K | 418.85 | 416.13
378.15 K | 422.09 | 419.36
383.15 K | 425.5 | 422.6
388.15 K | 428.73 | 426.01
393.15 K | 432.31 | 429.07
398.15 K | 435.38 | 433.16
403.15 K | 438.78 | 435.89
408.15 K | 442.53 | 438.78
413.15 K | 445.77 | 441.68
418.15 K | 449.34 | 444.06
423.15 K | 452.92 | 447.64
428.15 K | 456.5 | 450.88
433.15 K | 460.59 | 454.28
438.15 K | 465.35 | 458.2
443.15 K | – | 462.12
448.15 K | – | 465.7
453.15 K | – | 469.95
